Consider 6 molecules from ChEMBL document CHEMBL1128847, “Inhibition of matrix metalloproteinases by N-carboxyalkyl peptides containing extended alkyl residues At P1'” (Bioorg Med Chem Lett, 1995).

The target in one experiment is T1, Interstitial collagenase (Homo sapiens, UniProt P03956).
T1 sequence (P03956 whole entry): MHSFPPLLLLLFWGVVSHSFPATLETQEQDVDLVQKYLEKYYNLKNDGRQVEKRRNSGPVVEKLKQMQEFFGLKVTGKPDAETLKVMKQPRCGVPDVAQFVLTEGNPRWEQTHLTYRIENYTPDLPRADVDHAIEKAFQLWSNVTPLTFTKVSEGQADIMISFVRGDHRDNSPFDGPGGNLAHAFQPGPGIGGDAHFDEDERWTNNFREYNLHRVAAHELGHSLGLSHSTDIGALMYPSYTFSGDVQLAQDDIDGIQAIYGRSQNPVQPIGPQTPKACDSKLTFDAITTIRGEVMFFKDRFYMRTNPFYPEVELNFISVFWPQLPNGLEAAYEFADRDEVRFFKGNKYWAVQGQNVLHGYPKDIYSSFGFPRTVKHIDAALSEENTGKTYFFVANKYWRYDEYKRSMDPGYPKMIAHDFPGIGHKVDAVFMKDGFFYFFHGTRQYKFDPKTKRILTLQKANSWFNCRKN
As to the kind of experiment: Inhibition of human fibroblast collagenase (MMP-1).

Experiment [1] has as its target 72 kDa type IV collagenase (Homo sapiens, UniProt P08253). As to the kind of experiment: Inhibition of human gelatinase A (MMP-2).
Another experiment has as its target Stromelysin-1 (Homo sapiens, UniProt P08254).

Chain of 72 kDa type IV collagenase (P08253 whole entry): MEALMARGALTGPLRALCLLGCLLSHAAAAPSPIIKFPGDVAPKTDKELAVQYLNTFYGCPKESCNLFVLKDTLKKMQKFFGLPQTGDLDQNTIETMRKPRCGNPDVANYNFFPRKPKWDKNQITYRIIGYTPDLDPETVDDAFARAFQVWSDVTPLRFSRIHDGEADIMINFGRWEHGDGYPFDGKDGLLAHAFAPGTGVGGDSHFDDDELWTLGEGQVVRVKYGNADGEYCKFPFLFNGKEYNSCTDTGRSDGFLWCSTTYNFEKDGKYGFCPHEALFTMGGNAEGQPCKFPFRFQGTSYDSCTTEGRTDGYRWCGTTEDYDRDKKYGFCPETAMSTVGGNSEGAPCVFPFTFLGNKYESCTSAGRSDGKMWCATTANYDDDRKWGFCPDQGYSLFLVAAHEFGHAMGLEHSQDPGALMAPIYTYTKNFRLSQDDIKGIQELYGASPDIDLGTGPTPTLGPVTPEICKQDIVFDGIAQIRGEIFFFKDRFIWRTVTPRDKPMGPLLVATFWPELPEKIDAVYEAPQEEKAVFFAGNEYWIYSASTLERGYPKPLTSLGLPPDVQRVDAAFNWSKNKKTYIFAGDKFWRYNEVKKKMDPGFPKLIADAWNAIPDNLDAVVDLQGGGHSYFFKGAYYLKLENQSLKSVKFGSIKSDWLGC
Chain of Stromelysin-1 (P08254 whole entry): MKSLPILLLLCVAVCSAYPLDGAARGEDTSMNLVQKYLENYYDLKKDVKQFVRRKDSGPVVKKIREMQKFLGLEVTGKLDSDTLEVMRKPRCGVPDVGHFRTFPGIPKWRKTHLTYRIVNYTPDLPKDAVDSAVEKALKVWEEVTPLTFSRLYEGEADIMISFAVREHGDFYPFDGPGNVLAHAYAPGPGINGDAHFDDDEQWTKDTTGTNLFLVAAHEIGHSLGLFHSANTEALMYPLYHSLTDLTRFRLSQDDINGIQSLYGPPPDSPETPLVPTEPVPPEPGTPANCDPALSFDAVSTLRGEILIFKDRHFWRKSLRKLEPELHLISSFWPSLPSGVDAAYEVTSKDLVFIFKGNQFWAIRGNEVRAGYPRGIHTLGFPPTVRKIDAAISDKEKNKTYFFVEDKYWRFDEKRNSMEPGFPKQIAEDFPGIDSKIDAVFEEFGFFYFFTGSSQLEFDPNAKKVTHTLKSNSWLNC
Description for Stromelysin-1: Inhibition of human fibroblast stromelysin (MMP-3)

`C[C@@H](N[C@@H](CCCCCCCCCN)C(=O)N[C@@H](CCCN=C(N)N)C(=O)Nc1ccccc1)C(=O)O`: the Ki at Interstitial collagenase is greater than 10000 nM; in experiment [1], 110 nM; at Stromelysin-1 it was 370 nM.
Taken in the same sequence, the figures for `CCCCCCCC[C@H](N[C@H](C)C(=O)O)C(=O)N[C@@H](CCCN=C(N)N)C(=O)Nc1ccccc1` were greater than 10000 nM, 120 nM and 1600 nM.
On to `CC(C)C[C@H](NC(=O)[C@H](CCCCCCCCCN)N[C@H](C)C(=O)O)C(=O)Nc1ccccc1`, for which the inhibition constant (Ki) was greater than 10000 nM on Interstitial collagenase, 500 nM in experiment [1] and 240 nM on Stromelysin-1.
The corresponding values for `CCCCCCCC[C@H](N[C@H](C)C(=O)O)C(=O)N[C@@H](CC(C)C)C(=O)Nc1ccccc1` are greater than 10000 nM, 340 nM and 570 nM.
Regarding `CCCCCCCCCC[C@H](N[C@H](C)C(=O)O)C(=O)N[C@@H](CC(C)C)C(=O)Nc1ccccc1`, the inhibition constant (Ki) on Interstitial collagenase was greater than 10000 nM; in experiment [1], 560 nM; at Stromelysin-1 it was 850 nM.
With `CC(C)C[C@H](NC(=O)[C@H](CCc1ccccc1)N[C@H](C)C(=O)O)C(=O)Nc1ccccc1` [L-696418], the Ki at Interstitial collagenase stood at 760 nM; in experiment [1], 200 nM.
